The record followed here is publication PMC6220272, “Scaffold-Hopping from Synthetic Drugs by Holistic Molecular Representation” (Scientific Reports, 2018).

What is called EC50 is the concentration at which the effect is half-maximal.

Each structure is given as a SMILES string.

Holding throughout (format): cell-based
For test [1], the target named is T1, PPARδ (Homo sapiens, UniProt Q03181).
T1 construct: expressed in transfected cells; host or cells: HEK293T
T1 sequence (Q03181 211-439 limits assumed): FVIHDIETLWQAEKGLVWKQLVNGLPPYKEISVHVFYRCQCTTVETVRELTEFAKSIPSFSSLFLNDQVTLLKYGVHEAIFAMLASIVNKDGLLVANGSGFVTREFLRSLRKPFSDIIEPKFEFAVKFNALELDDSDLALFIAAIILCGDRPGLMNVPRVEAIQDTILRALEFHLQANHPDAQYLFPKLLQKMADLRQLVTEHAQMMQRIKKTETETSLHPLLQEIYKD
In words: Gal4 hybrid reporter gene assay PPARδ (selectivity profiling). As for the experimental part:
(§1) Moreover, 7 was characterized for its ability to modulate RXR target gene expression under more physiological conditions. Hepatoma cells (HepG2) were incubated with 7 (30 µM) or reference RXR agonist bexarotene (9, 1 µM) for eight hours and mRNA expression of RXR regulated genes ATP-binding cassette transporter A1 (ABCA1), angiopoietin like protein 4 (ANGPTL4) and apolipoprotein E (ApoE) was analysed by quantitative real-time PCR.
(§2) The Gal4 hybrid reporter gene assays were conducted as reported previously[39]–[41]. pFA-CMV-based constructs comprising the ligand binding domain of the human nuclear receptor in question were used as expression plasmids for the chimera receptors. pFR-Luc (Stratagene) served as reporter plasmid and pRL-SV40 (Promega) for normalization of transfection efficiency and cell growth. The assays were conducted in 96-well format in HEK293T cells that were cultured as described previously[39]–[41]. Transient transfection was carried out using Lipofectamine LTX reagent (Invitrogen) according to the manufacturer’s protocol. After transfection and incubation with test compounds (12–14 h), cells were assayed for luciferase activity using Dual-Glo™ Luciferase Assay System (Promega) according to the manufacturer’s protocol. Luminescence was measured with an Infinite M200 luminometer (Tecan Deutschland GmbH). […]
For orientation: Reporter assays use an easily measured gene product as a stand-in for the process of interest.

Test [2] has as its target T2, PPARγ (Homo sapiens, UniProt P37231).
T2 construct: expressed in transfected cells; host or cells: HEK293T
T2 sequence (P37231 238-503 limits assumed): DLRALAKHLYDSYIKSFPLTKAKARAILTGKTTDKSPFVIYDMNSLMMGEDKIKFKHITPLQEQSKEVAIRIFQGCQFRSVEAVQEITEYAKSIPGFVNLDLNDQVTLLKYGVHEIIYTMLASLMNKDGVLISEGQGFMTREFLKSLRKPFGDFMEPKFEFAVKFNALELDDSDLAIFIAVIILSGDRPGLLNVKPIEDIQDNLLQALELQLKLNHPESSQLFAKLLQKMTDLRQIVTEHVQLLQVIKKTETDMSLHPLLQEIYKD
In words: Gal4 hybrid reporter gene assay PPARγ (selectivity profiling). The procedure: as §1, §2

Test [3] concerns the target T3, human RXRα ligand binding domain (Gal4 hybrid receptor) (Homo sapiens, UniProt P19793).
T3 construct: expressed in transfected cells; host or cells: HEK293T
T3 sequence (P19793 227-458 limits assumed): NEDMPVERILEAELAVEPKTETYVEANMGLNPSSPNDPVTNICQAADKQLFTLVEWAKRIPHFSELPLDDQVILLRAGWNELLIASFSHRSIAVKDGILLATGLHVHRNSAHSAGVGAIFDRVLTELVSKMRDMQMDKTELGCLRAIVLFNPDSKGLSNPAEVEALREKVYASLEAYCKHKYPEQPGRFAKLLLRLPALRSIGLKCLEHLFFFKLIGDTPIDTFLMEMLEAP
In words: Gal4 hybrid reporter gene assay RXRα. As to conditions: HEK293T cells, n ≥ 4, read-out: RXRα EC50 ± SEM. The procedure:
The 20 top-ranked synthetic compounds were selected and tested in vitro for their modulatory activity on RXR (Supplementary Table 1). Compounds were tested in specific hybrid reporter gene assays for RXRα, RXRβ and RXRγ modulation[39]–[41]. These assays rely on a constitutively expressed hybrid receptor composed of the respective human RXR ligand binding domain and the DNA binding domain of the Gal4 receptor from yeast. A Gal4 responsive firefly luciferase was used as reporter gene and constitutively expressed renilla luciferase served as internal control for transfection efficiency and test compound toxicity. All selected compounds were tested at 50 µM concentration on RXRα and for active compounds (Supplementary Fig. 1), dose response curves were recorded on all three RXR subtypes.
The Gal4 hybrid reporter gene assays were conducted as reported previously[39]–[41]. pFA-CMV-based constructs comprising the ligand binding domain of the human nuclear receptor in question were used as expression plasmids for the chimera receptors. pFR-Luc (Stratagene) served as reporter plasmid and pRL-SV40 (Promega) for normalization of transfection efficiency and cell growth. The assays were conducted in 96-well format in HEK293T cells that were cultured as described previously[39]–[41]. Transient transfection was carried out using Lipofectamine LTX reagent (Invitrogen) according to the manufacturer’s protocol. After transfection and incubation with test compounds (12–14 h), cells were assayed for luciferase activity using Dual-Glo™ Luciferase Assay System (Promega) according to the manufacturer’s protocol. Luminescence was measured with an Infinite M200 luminometer (Tecan Deutschland GmbH). All hybrid assays were validated with reference agonists (PPARα: GW7647; PPARγ: pioglitazone; PPARδ: L165,041; LXRα/β: T0901317; FXR: GW4064; RXRs: bexarotene; RARs: tretinoin; VDR: calcitriol; CAR: CITCO; PXR: SR12813) which yielded EC50 values in agreement with literature. The assays were conducted in duplicates with at least two independent repeats and for active compounds repeated without hybrid receptor coding DNA for every test compound at the highest tested concentration to exclude unspecific effects.
Supplementary Figure 2. Dose-response curves for RXRα activation. Compounds were tested in specific hybrid reporter gene assays for RXRα, RXRβ and RXRγ modulation.^1–3 These assays rely on a constitutively expressed hybrid receptor composed of the respective human RXR ligand binding domain and the DNA binding domain of the Gal4 receptor from yeast. A Gal4 responsive firefly luciferase was used as reporter gene and constitutively expressed renilla luciferase served as internal control for transfection efficiency and test compound toxicity. […]

Test [4] relates to angiopoietin like protein 4 (ANGPTL4) mRNA in HepG2 cells. The test can be described thus: Target gene quantification (quantitative real-time PCR), ANGPTL4. To be noted: HepG2, 7 at 30 µM versus bexarotene at 1 µM, 8 h, qRT-PCR. As for the experimental part: as §1
HepG2 cells were incubated with test compound 7 (30 µM) or bexarotene (1 µM) as positive control each dissolved in 0.1% DMSO or 0.1% DMSO alone as untreated control for 8 h, harvested, washed with cold phosphate buffered saline (PBS) and then directly used for RNA extraction with the Total RNA Mini Kit (R6834-02, Omega Bio-Tek, Inc., Norcross, GA, USA). 2 µg RNA were reverse-transcribed into cDNA using the High-Capacity cDNA Reverse Transcription Kit (4368814, Thermo Fischer Scientific, Inc.). RXR target gene expression was evaluated by quantitative real time PCR analysis with a StepOnePlus™ System (Life Technologies, Carlsbad, CA, USA) using PowerSYBRGreen (Life Technologies; 12.5 µl per well) and the primers reported in Supplementary Table 4[58]. […] The expression was quantified by the comparative ∆∆Ct method. […] Results are expressed as mean ± standard error of the mean (SEM) relative mRNA expression compared to DMSO (0.1%) control which was set as 1.

For test [5], the target named is T4, vitamin D receptor [VDR] (Homo sapiens, UniProt P11473).
T4 construct: expressed in transfected cells; host or cells: HEK293T
T4 sequence (P11473 127-423 limits assumed): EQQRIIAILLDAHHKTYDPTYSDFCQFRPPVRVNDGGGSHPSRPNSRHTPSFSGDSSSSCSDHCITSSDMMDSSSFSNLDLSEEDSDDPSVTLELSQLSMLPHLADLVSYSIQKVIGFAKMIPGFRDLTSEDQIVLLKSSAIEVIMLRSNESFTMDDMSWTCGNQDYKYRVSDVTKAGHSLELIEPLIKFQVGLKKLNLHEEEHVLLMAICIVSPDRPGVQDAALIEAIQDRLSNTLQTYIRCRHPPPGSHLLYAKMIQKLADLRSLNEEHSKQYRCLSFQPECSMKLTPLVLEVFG
In words: Gal4 hybrid reporter gene assay VDR (selectivity profiling). As for the experimental part: as §1, §2

Take `CC(C)(C)c1cc(/C=N/NC(=O)c2ccc(N)cc2)cc(C(C)(C)C)c1` [Compound 7]: the “activity on PPARδ” value in test [1] is “no activity”. Also, the “activity on PPARγ” value in test [2] was “no activity”. Also, in test [3], the EC50 was 32.1 ± 0.9 µM. For the same molecule, the “induction of ANGPTL4 mRNA expression” value in test [4] is “comparable efficacy as RXR agonist bexarotene”. Further, the “activity on VDR” value in test [5] is recorded as “no activity”.
